ChEMBL document CHEMBL3046373, “Optimised expression and spectral analysis of the target enzyme CYP51 from Penicillium digitatum with possible new DMI fungicides” (Pest Manag Sci, 2010)
≈ marks a conversion by molar mass, not a printed value.

Assays:
Penicillium digitatum = experiment: Antifungal activity against Penicillium digitatum after 48 hr; type: functional, organism-based
[1] = target: T1, Cytochrome P450 14alpha-demethylase (Penicillium digitatum, UniProt A1XG20); experiment: Binding affinity to Penicillium digitatum recombinant N-terminal-His6 tagged CYP51 expressed in Escherichia coli BL21(DE3) by spectrophotometric analysis
T1 sequence (A1XG20 whole entry): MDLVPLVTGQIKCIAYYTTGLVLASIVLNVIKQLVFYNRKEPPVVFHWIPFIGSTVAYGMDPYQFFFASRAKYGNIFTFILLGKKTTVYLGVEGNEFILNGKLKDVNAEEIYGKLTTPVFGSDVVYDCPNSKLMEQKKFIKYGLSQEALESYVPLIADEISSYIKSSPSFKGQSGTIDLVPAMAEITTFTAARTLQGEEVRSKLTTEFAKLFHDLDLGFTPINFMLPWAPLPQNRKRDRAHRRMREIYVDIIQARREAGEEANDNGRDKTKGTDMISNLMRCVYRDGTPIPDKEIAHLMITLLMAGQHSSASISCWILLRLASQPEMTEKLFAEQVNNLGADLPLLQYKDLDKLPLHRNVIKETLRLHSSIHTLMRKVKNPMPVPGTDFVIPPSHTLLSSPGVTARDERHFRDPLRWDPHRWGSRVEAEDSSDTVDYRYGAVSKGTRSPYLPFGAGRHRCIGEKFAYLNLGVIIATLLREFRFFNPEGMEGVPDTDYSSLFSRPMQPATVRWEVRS

Structure (SMILES) | EC50 (Penicillium digitatum) [µg/mL] | Kd [1] [µM]
Nc1nnc(CSCc2ccc(Cl)cc2)s1 | 7.88 (≈ 29 µM) | 0.642
c1cc2c3c(cccc3c1)NC(c1cnc[nH]1)N2 | 38.6 (≈ 163 µM) | 0.99
NNc1ncncc1-c1ccccc1 [5-PHENYLPYRIMIDIN-4-YLHYDRAZINE] | 10.1 (≈ 54.2 µM) | 0.658
COc1ccc2c(c1)SCC(N)=N2 [7-METHOXY-2H-BENZO[B][1,4]THIAZINE-3-AMINE] | 1.18 (≈ 6.07 µM) | 0.268
CC(C)(C)C(O)/C(=C\c1ccc(Cl)cc1Cl)n1cncn1 (stereo not given) [DINICONAZOLE] |  | 0.12
CC(C)(C)C(=O)C(Oc1ccc(Cl)cc1)n1cncn1 (stereo not given) [TRIADIMEFON] |  | 0.42
